In ChEMBL document CHEMBL2413049, “Design and synthesis of novel 1,25-dihydroxyvitamin D3 analogues having a spiro-oxetane fused at the C2 position in the A-ring” (Bioorg Med Chem, 2013):

Legend:
[1] = molecular target: T1, Vitamin D3 receptor (Homo sapiens) (UniProt P11473); assay: Binding affinity to VDR (unknown origin) relative to 1alpha,25-dihydroxyvitamin D3
T1 sequence (whole entry): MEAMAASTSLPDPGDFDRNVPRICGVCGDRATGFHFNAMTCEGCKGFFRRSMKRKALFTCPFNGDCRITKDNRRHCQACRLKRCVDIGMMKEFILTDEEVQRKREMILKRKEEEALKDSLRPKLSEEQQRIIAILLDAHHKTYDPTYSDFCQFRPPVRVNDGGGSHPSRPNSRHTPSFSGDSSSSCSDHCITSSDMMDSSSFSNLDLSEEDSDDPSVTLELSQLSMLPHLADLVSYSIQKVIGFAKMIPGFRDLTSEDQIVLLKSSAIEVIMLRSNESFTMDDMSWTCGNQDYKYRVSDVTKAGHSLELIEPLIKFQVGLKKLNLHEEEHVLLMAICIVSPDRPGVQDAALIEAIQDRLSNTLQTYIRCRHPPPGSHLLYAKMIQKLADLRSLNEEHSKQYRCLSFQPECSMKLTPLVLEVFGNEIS

[2] = molecular target: T2, Vitamin D3 receptor (Bos taurus) (UniProt Q28037); assay: Binding affinity to bovine thymus VDR relative to 1alpha,25-dihydroxyvitamin D3
T2 sequence (whole entry): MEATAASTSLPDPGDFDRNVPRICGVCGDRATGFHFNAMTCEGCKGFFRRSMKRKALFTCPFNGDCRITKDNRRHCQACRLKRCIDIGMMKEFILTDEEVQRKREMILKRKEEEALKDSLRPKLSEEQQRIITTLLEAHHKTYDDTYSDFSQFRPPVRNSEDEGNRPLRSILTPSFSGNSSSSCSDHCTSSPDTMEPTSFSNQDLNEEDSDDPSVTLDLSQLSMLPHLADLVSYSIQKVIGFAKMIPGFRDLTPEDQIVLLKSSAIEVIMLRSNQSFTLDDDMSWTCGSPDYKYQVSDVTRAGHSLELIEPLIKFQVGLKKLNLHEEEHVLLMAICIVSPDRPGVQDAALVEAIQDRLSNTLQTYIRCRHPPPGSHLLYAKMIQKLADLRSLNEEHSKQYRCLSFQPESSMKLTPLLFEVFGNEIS

[3] = molecular target: T2, Vitamin D3 receptor (Bos taurus); assay: Displacement of [3H]-1alpha,25 dihydroxyvitamin D3 from bovine thymus VDR after 60 mins relative to 1alpha,25-dihydroxyvitamin D3

| fold change (FC) [3] | SMILES | further results |
| --- | --- | --- |
| – | C=C1/C(=C\C=C2/CCC[C@]3(C)[C@@H]([C@H](C)CCCC(C)(C)O)CC[C@@H]23)C[C@@H](O)C(C)(C)[C@@H]1O | fold change (FC) [1]: 3 |
| – | C=C1/C(=C\C=C2/CCC[C@]3(C)[C@@H]([C@H](C)CCCC(C)(C)O)CC[C@@H]23)C[C@@H](O)[C@H](C)[C@@H]1O | fold change (FC) [2]: 400 |
| 100 | C=C1/C(=C\C=C2/CCC[C@]3(C)[C@@H]([C@H](C)CCCC(C)(C)O)CC[C@@H]23)C[C@@H](O)C[C@@H]1O | – |
| 0.001 | C=C1/C(=C\C=C2/CCC[C@]3(C)[C@@H]([C@H](C)CCCC(C)(C)O)CC[C@@H]23)C[C@H](O)C2(COC2)[C@H]1O | – |
| 0.002 | C=C1/C(=C\C=C2/CCC[C@]3(C)[C@@H]([C@H](C)CCCC(C)(C)O)CC[C@@H]23)C[C@@H](O)C2(COC2)[C@H]1O | – |
| 5 | C=C1/C(=C\C=C2/CCC[C@]3(C)[C@@H]([C@H](C)CCCC(C)(C)O)CC[C@@H]23)C[C@@H](O)C2(COC2)[C@@H]1O | – |
| – | C=C1/C(=C\C=C2/CCC[C@]3(C)[C@@H]([C@H](C)CCCC(C)(C)O)CC[C@@H]23)C[C@@H](O)[C@@H](C)[C@@H]1O | fold change (FC) [2]: 13 |
| 0.04 | C=C1/C(=C\C=C2/CCC[C@]3(C)[C@@H]([C@H](C)CCCC(C)(C)O)CC[C@@H]23)C[C@H](O)C2(COC2)[C@@H]1O | – |
